Assay results: article PMC3789947, “Mechanism for Recognition of an Unusual Mycobacterial Glycolipid by the Macrophage Receptor Mincle” (The Journal of Biological Chemistry, 2013)

Legend:
bovine mincle CRD [1] = target: T1, bovine mincle CRD (Bos taurus, UniProt E1BHM0, I174T); assay: competition with […]-Man31-BSA on immobilized biotin-tagged CRD; format: binding
T1 construct: gene CLEC4E; C-type carbohydrate recognition domain, residues 78-211
T1 sequence (E1BHM0 78-211 I174T): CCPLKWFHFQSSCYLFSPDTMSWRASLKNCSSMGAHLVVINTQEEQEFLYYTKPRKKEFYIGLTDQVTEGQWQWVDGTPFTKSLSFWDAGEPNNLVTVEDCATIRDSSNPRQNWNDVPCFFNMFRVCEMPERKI

bovine mincle CRD [2] = target: T1, bovine mincle CRD; assay: as above; format: binding; conditions: pH 7.8, 1.5 M NaCl, 2.5 mM CaCl2, 4 °C
[3] = reported as KI(trehalose)/KI(acyltrehalose) ratio

| SMILES | KI (bovine mincle CRD [2]; [3]) | also measured |
| --- | --- | --- |
| CCCCCCCC(=O)OC[C@H]1O[C@H](O[C@H]2O[C@H](CO)[C@@H](O)[C@H](O)[C@H]2O)[C@H](O)[C@@H](O)[C@@H]1O [mono-octanoyl trehalose] |  | Ki (bovine mincle CRD [1]): 58 ± 8 µM |
| CC(=O)OC[C@H]1O[C@H](O[C@H]2O[C@H](COC(C)=O)[C@@H](O)[C@H](O)[C@H]2O)[C@H](O)[C@@H](O)[C@@H]1O [trehalose acetylated at the two 6-OH groups] | acetylation at the two 6-OH groups is tolerated |  |
| CCCC(=O)OC[C@H]1O[C@H](O[C@H]2O[C@H](CO)[C@@H](O)[C@H](O)[C@H]2O)[C@H](O)[C@@H](O)[C@@H]1O [mono-n-butanoyl derivative of trehalose] | the mono-n-butanoyl derivative showed enhanced affinity compared with trehalose |  |
| CO[C@H]1O[C@H](CO)[C@@H](O)[C@H](O)[C@H]1O [α-methyl glucoside] |  | KI (bovine mincle CRD [2]): The mean ratio of KI values for α-methyl glucoside and trehalose |
